Patent EP0216290A2, “Use of thienyl amines as agents with an output-accelerating effect; thienyl amine” (BAYER AG, priority 1985, dated 1987)

system: Weibliche Laborratten; test: Rat feeding test (Ratten-Fütterungsversuch, Beispiel A); format: in vivo, Laborratten vom Typ SPF Wistar; conditions: 25 ppm in feed ad lib, 13-day test, 12 female rats per group; relative to control without active substance = 100
Source text: Weibliche Laborratten 90-110 g schwer vom Typ SPF Wistar (Züchtung Hagemann) werden ad lib mit Standard Rattenfutter, das mit der gewünschten Menge Wirkstoff versetzt ist, gefüttert. Jeder Versuchsansatz wird mit Futter der identischen Charge durchgeführt, so daß Unterschiede in der Zusammensetzung des Futters die Vergleichbarkeit der Ergebnisse nicht beeinträchtigen können.
Die Ratten erhalten Wasser ad lib.
Jeweils 12 Ratten bilden eine Versuchsgruppe und werden mit Futter, das mit der gewünschten Menge Wirkstoff versetzt ist, gefüttert. Eine Kontrollgruppe erhält Futter ohne Wirkstoff. Das durchschnittliche Körpergewicht sowie die Streuung in den Körpergewichten der Ratten ist in jeder Versuchsgruppe gleich, so daß eine Vergleichbarkeit der Versuchsgruppen untereinander gewährleistet ist.
Während des 13-tägigen Versuchs werden Gewichtszunahme und Futterverbrauch bestimmt.
Es werden die aus der Tabelle ersichtlichen Ergebnisse erhalten: […]

`CCCCCc1cc(C(=O)OCC)c(NC(=O)OC2CCCCC2)s1` [Bsp. 19] was tested. Which Gewichtszunahme did it give?
The Gewichtszunahme was 115.

`CCCCCc1cc(C(=O)OCC)c(NC(=O)Oc2ccccc2C)s1` [Bsp. 20] was tested. Which Gewichtszunahme did it give?
The Gewichtszunahme was 109.

Which Gewichtszunahme does the source give for `COC(=O)Nc1sc2c(c1C(=O)OC)CCCC2` [Bsp. 31] here?
Its Gewichtszunahme is 109.

How did the Gewichtszunahme turn out when `CCOC(=O)c1cc(CC)sc1NC(=O)Oc1ccccc1` [Bsp. 56] was run?
The Gewichtszunahme was 116.

How did the Gewichtszunahme turn out when `CCOC(=O)c1c(NC(=O)OC)sc(C)c1CC` [Bsp. 1, 2-Aminomethoxycarbonyl-3-carbethoxy-4-ethyl-5-methylthiophen] was run?
Its Gewichtszunahme is 119.
